“And” between values parts separate entries of the source, which are not always exact repeats. Identical values can stand only once. Toxic doses and inconclusive results are not listed. The calls were made as follows: active = survival T/C of 150% or more; inactive = T/C below 125% in these data.
System: P388 leukemia ip, CD2F1 mice, survival T/C
Assay: NCI In Vivo Anticancer Drug Screen. Data for tumor model P388 Leukemia (intraperitoneal) in CD2F1 (CDF1) mice
Details: endpoint: median survival time, higher = longer survival
Outline: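 Mice carrying the transplanted tumor received test compound or vehicle. Survival was recorded in each group, and the value is the treated-group measurement divided by that of the vehicle-treated control group.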

[1] = dose: 100.0 mg/kg/injection, schedule: Q01DX001 (ip), vehicle: saline with Tween-80
[2] = dose: 60.0 mg/kg/injection, schedule: Q01DX005 (ip), vehicle: saline with Tween-80
[3] = dose: 120.0 mg/kg/injection, schedule: Q01DX005 (ip), vehicle: saline with Tween-80
[4] = dose: 240.0 mg/kg/injection, schedule: Q01DX005 (ip), vehicle: saline with Tween-80
[5] = dose: 50.0 mg/kg/injection, schedule: Q01DX005 (ip), vehicle: saline with Tween-80
[6] = dose: 100.0 mg/kg/injection, schedule: Q01DX005 (ip), vehicle: saline with Tween-80
[7] = dose: 6.25 mg/kg/injection, schedule: Q01DX009 (ip), vehicle: saline with Tween-80
[8] = dose: 12.5 mg/kg/injection, schedule: Q01DX009 (ip), vehicle: saline with Tween-80
[9] = dose: 25.0 mg/kg/injection, schedule: Q01DX009 (ip), vehicle: saline with Tween-80
[10] = dose: 50.0 mg/kg/injection, schedule: Q01DX009 (ip), vehicle: saline with Tween-80
[11] = dose: 100.0 mg/kg/injection, schedule: Q01DX009 (ip), vehicle: saline with Tween-80
[12] = dose: 200.0 mg/kg/injection, schedule: Q01DX009 (ip), vehicle: saline with Tween-80

Measured: T/C

Cc1ccc2nc(C[n+]3cccc4ccccc43)ccc2c1
inactive: dose: 0.38 mg/kg/injection, schedule: Q01DX005 (ip), vehicle: saline 107 % of control | dose: 0.75 mg/kg/injection, schedule: Q01DX005 (ip), vehicle: saline with Tween-80 113 % of control | dose: 0.75 mg/kg/injection, schedule: Q01DX005 (ip), vehicle: saline 115 % of control and 122 % of control | dose: 1.5 mg/kg/injection, schedule: Q01DX005 (ip), vehicle: saline with Tween-80 115 % of control | dose: 1.5 mg/kg/injection, schedule: Q01DX005 (ip), vehicle: saline 116 % of control | dose: 3.0 mg/kg/injection, schedule: Q01DX005 (ip), vehicle: saline with Tween-80 100 % of control | dose: 3.0 mg/kg/injection, schedule: Q01DX005 (ip), vehicle: saline 114 % of control and 116 % of control | dose: 3.12 mg/kg/injection, schedule: Q01DX005 (ip), vehicle: saline with Tween-80 117 % of control

CCN(CC)CCOC1CC(C)CCC1C(C)C (stereo not drawn)
inactive: dose: 50.0 mg/kg/injection, schedule: Q01DX005 (ip), vehicle: saline 111 % of control | dose: 100.0 mg/kg/injection, schedule: Q01DX005 (ip), vehicle: saline 100 % of control | dose: 200.0 mg/kg/injection, schedule: Q01DX005 (ip), vehicle: saline 100 % of control

CCOC(=O)C/C(=N\Nc1ccc([N+](=O)[O-])cc1[N+](=O)[O-])c1ccccc1
inactive: [1] 100 % of control | dose: 200.0 mg/kg/injection, schedule: Q01DX001 (ip), vehicle: saline with Tween-80 100 % of control | dose: 400.0 mg/kg/injection, schedule: Q01DX001 (ip), vehicle: saline with Tween-80 100 % of control

COC(=O)C1(CC(=O)c2ccccn2)NC(=S)NC(=O)C1C#N (stereo not drawn)
inactive: [2] 100 % of control | [3] 97 % of control | [4] 97 % of control

COc1ccc(/C(=N/SC)N(C)C)cc1
inactive: dose: 3.75 mg/kg/injection, schedule: Q01DX005 (ip), vehicle: saline 103 % of control | dose: 7.5 mg/kg/injection, schedule: Q01DX005 (ip), vehicle: saline 111 % of control | dose: 15.0 mg/kg/injection, schedule: Q01DX005 (ip), vehicle: saline 104 % of control

N#CCc1nc2ccccc2nc1Cl
inactive: dose: 50.0 mg/kg/injection, schedule: Q01DX009 (ip), vehicle: distilled water + Tween-80 + alcohol 100 % of control | dose: 100.0 mg/kg/injection, schedule: Q01DX009 (ip), vehicle: distilled water + Tween-80 + alcohol 94 % of control

S=c1nc[nH]c2c1ncn2C1C=CC=CC=C1
inactive: [5] 110 % of control | [6] 106 % of control

CC(C)(C)SC(=S)SCC(=O)c1cc2cc(Br)ccc2o1
inactive: [5] 89 % of control | [6] 96 % of control | dose: 200.0 mg/kg/injection, schedule: Q01DX005 (ip), vehicle: saline with Tween-80 93 % of control

Cc1ccc(NC(=S)SCc2ccc3c(c2)OCO3)cc1Cl
inactive: dose: 50.0 mg/kg/injection, schedule: Q01DX009 (ip), vehicle: suspension in saline 106 % of control | dose: 100.0 mg/kg/injection, schedule: Q01DX009 (ip), vehicle: suspension in saline 94 % of control | dose: 200.0 mg/kg/injection, schedule: Q01DX009 (ip), vehicle: suspension in saline 102 % of control

COC(=O)Nc1nc2ccc(C(=O)OCC(C)C)cc2[nH]1
inactive: dose: 100.0 mg/kg/injection, schedule: Q04DX002 (ip), vehicle: saline with Tween-80 98 % of control | dose: 200.0 mg/kg/injection, schedule: Q04DX002 (ip), vehicle: saline with Tween-80 90 % of control

CN(C)c1nc(N(C)C)nc(N(C)C)n1
inactive: [7] 110 % of control | [8] 105 % of control and 108 % of control and 96 % of control | dose: 20.0 mg/kg/injection, schedule: Q01DX009 (ip), vehicle: saline with Tween-80 108 % of control | dose: 25.0 mg/kg/injection, schedule: Q01DX001 (ip), vehicle: Klucel (hydroxypropylcellulose) (HPC) 103 % of control and 104 % of control | [9] 98 % of control and 103 % of control and 107 % of control | dose: 25.0 mg/kg/injection, schedule: Q04DX002 (ip), vehicle: Klucel (hydroxypropylcellulose) (HPC) 100 % of control and 112 % of control | dose: 25.0 mg/kg/injection, schedule: Q04DX003 (ip), vehicle: Klucel (hydroxypropylcellulose) (HPC) 110 % of control and 115 % of control | dose: 40.0 mg/kg/injection, schedule: Q01DX009 (ip), vehicle: saline with Tween-80 109 % of control | [10] 104 % of control and 109 % of control (2×) | dose: 75.0 mg/kg/injection, schedule: Q01DX005 (ip), vehicle: Klucel (hydroxypropylcellulose) (HPC) 105 % of control | dose: 80.0 mg/kg/injection, schedule: Q01DX009 (ip), vehicle: saline with Tween-80 111 % of control | [11] 114 % of control and 119 % of control and 97 % of control | dose: 150.0 mg/kg/injection, schedule: Q01DX005 (ip), vehicle: Klucel (hydroxypropylcellulose) (HPC) 105 % of control | dose: 160.0 mg/kg/injection, schedule: Q01DX009 (ip), vehicle: saline with Tween-80 118 % of control | [12] 108 % of control

CC1CCC(OC(=O)N(CCCl)N=O)CC1 (stereo not drawn)
inactive: dose: 3.12 mg/kg/injection, schedule: Q01DX001 (ip), vehicle: saline with Tween-80 100 % of control | dose: 6.25 mg/kg/injection, schedule: Q01DX001 (ip), vehicle: saline with Tween-80 108 % of control | dose: 12.5 mg/kg/injection, schedule: Q01DX001 (ip), vehicle: saline with Tween-80 111 % of control | dose: 25.0 mg/kg/injection, schedule: Q01DX001 (ip), vehicle: saline with Tween-80 118 % of control | dose: 50.0 mg/kg/injection, schedule: Q01DX001 (ip), vehicle: saline with Tween-80 105 % of control | [1] 114 % of control and 86 % of control | dose: 150.0 mg/kg/injection, schedule: Q01DX001 (ip), vehicle: saline with Tween-80 100 % of control

Fc1ccc(N=Cc2ccc(C=Nc3ccc(F)cc3)cc2)cc1
inactive: dose: 50.0 mg/kg/injection, schedule: Q01DX009 (ip), vehicle: saline 100 % of control | dose: 100.0 mg/kg/injection, schedule: Q01DX009 (ip), vehicle: saline 100 % of control | dose: 200.0 mg/kg/injection, schedule: Q01DX009 (ip), vehicle: saline 97 % of control

CNC(=S)N/N=C(C)/C=C/c1ccccc1
inactive: dose: 50.0 mg/kg/injection, schedule: Q01DX005 (ip), vehicle: Klucel (hydroxypropylcellulose) (HPC) 107 % of control | dose: 100.0 mg/kg/injection, schedule: Q01DX005 (ip), vehicle: Klucel (hydroxypropylcellulose) (HPC) 101 % of control | dose: 200.0 mg/kg/injection, schedule: Q01DX005 (ip), vehicle: Klucel (hydroxypropylcellulose) (HPC) 101 % of control

COc1ccc(C(=O)/C=C/c2ccc(OCc3ccccc3)cc2)c(OC)c1
inactive: [7] 99 % of control | [8] 93 % of control | [9] 91 % of control

COC(=O)C1c2ccc(OC)c(OC)c2C(=O)N2CCc3cc4c(cc3C12)OCO4 (stereo not drawn)
inactive: dose: 50.0 mg/kg/injection, schedule: Q04DX003 (ip), vehicle: distilled water + Tween-80 95 % of control | dose: 100.0 mg/kg/injection, schedule: Q04DX003 (ip), vehicle: distilled water + Tween-80 101 % of control | dose: 200.0 mg/kg/injection, schedule: Q04DX003 (ip), vehicle: distilled water + Tween-80 95 % of control | dose: 400.0 mg/kg/injection, schedule: Q04DX003 (ip), vehicle: distilled water + Tween-80 104 % of control

O=C(Oc1ccccc1)C(Cc1ccccc1)NC(=O)C(F)(F)F (stereo not drawn)
inactive: [10] 108 % of control | [11] 99 % of control | [12] 103 % of control

COc1ccc(C2COc3cc(O)c(O)cc3C2)cc1OC (stereo not drawn)
inactive: [2] 101 % of control | [3] 97 % of control | [4] 101 % of control

Source: PubChem BioAssay AID330 (DTP/NCI, 2004)
